# Patent US12325694B2, “Co-crystalline form of efinaconazole and method for preparing the same” (Daebong Ls Co., Ltd., priority 2019, dated 2025)
# Experiment: Stability test: HPLC purity after standing in solution at different temperatures
# Type: physicochemical
# Conditions: Solution (10%)
# Procedure: The stabilities of the co-crystals of efinaconazole to temperature and a solution were evaluated and compared by the following experimental method.
compound,measurement,setting,value
"C=C1CCN([C@H](C)[C@](O)(Cn2cncn2)c2ccc(F)cc2F)CC1 [Efinaconazole, efinaconazole]",HPLC (%),"65 °C (oven), after 1 week",99.55%
same,Related substances (%),"65 °C (oven), after 1 week",0.45%
same,HPLC (%),"65 °C (oven), after 2 weeks",99.46%
same,Related substances (%),"65 °C (oven), after 2 weeks",0.54%
same,HPLC (%),"65 °C (oven), after 4 weeks",98.47%
same,Related substances (%),"65 °C (oven), after 4 weeks",1.53%
same,HPLC (%),"room temp., after 1 week",99.73%
same,Related substances (%),"room temp., after 1 week",0.27%
same,HPLC (%),"room temp., after 2 weeks",99.61%
same,Related substances (%),"room temp., after 2 weeks",0.39%
same,HPLC (%),"room temp., after 4 weeks",99.60%
same,Related substances (%),"room temp., after 4 weeks",0.40%
